Data on 5 molecules can be found in PMC4039038 (Journal of immunology (Baltimore, Md. : 1950), 2011).

The target of assay [1] is ERAP1 Q730E (730E) (Homo sapiens, UniProt Q9NZ08, Q730E). The assay is described as follows: Michaelis–Menten kinetics of antigenic peptide precursor trimming, ERAP1 Q730E. It counts as biochemical. To be noted: 730E allele; classical MM model; initial trimming rates, reactions limited to 10 min, 25°C.
Assay [2] has as its system ERAP1 Q730E (730E). The description is as above. It counts as biochemical, human. To be noted: low substrate concentrations (kcat/KM); Q730E vs Ref and K528R.
The target of assay [3] is ERAP1 K528R (528R) (Homo sapiens, UniProt Q9NZ08, K528R). The assay is described as follows: Michaelis–Menten kinetics of antigenic peptide precursor trimming, ERAP1 K528R. Type of assay: biochemical.
Assay [4] concerns ERAP1 K528R. Nature of the assay: LAMC hydrolysis, ERAP1 K528R. To be noted: no activating peptide, 25°C, up to 10 min. It counts as biochemical, human.
Assay [5] has as its system ERAP1 alleles (Ref, K528R, Q730E). The assay is described as follows: LAMC trimming in the presence of SIINFEKL, all three ERAP1 alleles. It counts as biochemical, human. To be noted: 100 μM SIINFEKL
The test system is the same in assay [6]. The assay is described as follows: LAMC hydrolysis, all three ERAP1 alleles. Type of assay: biochemical, human. Particulars: no activating peptide; 25°C, up to 10 min.
For assay [7], the system named is ERAP1 K528R. Nature of the assay: Activation of LAMC trimming by SIINFEKL, ERAP1 K528R. To be noted: 100 μM SIINFEKL, 25°C, up to 10 min. Type of assay: biochemical, human.
Assay [8] has as its system ERAP1 Q730E. The assay is described as follows: Activation of LAMC trimming by SIINFEKL, ERAP1 Q730E. It counts as biochemical, human. Particulars: 100 μM SIINFEKL, 25°C, up to 10 min.
Assay [9] relates to ERAP1. To be noted: 8mer peptide; ref [3]; cited from earlier work.
Assay [10] addresses endoplasmic reticulum aminopeptidase 1 (ERAP1), ancestral reference sequence NP_057526 (human, UniProt Q9NZ08-2 1-948). The assay is described as follows: enzyme kinetics.
Assay [11] has as its target ERAP1 Q730E (rs27044) (human, UniProt Q9NZ08-2 1-948, Q730E). Nature of the assay: enzyme kinetics.
Setting [12] is: 528R allele, classical MM model, initial trimming rates, reactions limited to 10 min, 25°C.

What is called Km is the substrate concentration at which the rate is half of its maximum. In general, Ki refers to a measure of affinity in units of concentration, obtained from inhibition or displacement.

On to LATFPDTLTY, for which, in assay [1], the Km was 45 ± 11 µM, the kcat stood at 1.635 ± 0.10 s^–1 and the kcat/KM is reported as 36 ± 9 × 10^3 s^–1 M^–1. Besides, the “processing rate, fold more slowly by Q730E than by the other two alleles” value in assay [2] stood at 2 fold. Besides, in assay [3] (setting [12]), the Michaelis constant (Km) was 49 ± 13 µM, the kcat came to 3.09 ± 0.203 s^–1 and the kcat/KM is listed as 63 ± 17 × 10^3 s^–1 M^–1. Besides, the “processing rate by the K528R allele relative to other alleles” value in assay [3] (saturating conditions (kcat controls trimming rates)) is recorded as “twice as quickly”.

Take `Cc1cc(=O)oc2cc(NC(=O)[C@@H](N)CC(C)C)ccc12` [LAMC, L-leucine-7-amido-4-methyl coumarin]: the “fold less active of ERAP1 K528R in LAMC hydrolysis” value in assay [4] is ~ 4 fold. The “trimming activity of all three alleles toward LAMC in the presence of SIINFEKL” value in assay [5] (comparison between the three alleles) is given as “comparable trimming activity”. Further, in assay [6], the “hydrolysis of LAMC by all three variants” value is reported as “enzymatically active”.

For the molecule SIINFEKL, the “magnitude of activation of LAMC trimming” value in assay [7] is on record as 4 fold; in [8] it was 1.6 fold. Besides, the “ERAP1-mediated hydrolysis of LAMC in the presence of SIINFEKL” value in [5] is “enhanced”. Besides, the “substrate quality for ERAP1” value in assay [9] is “poor substrate”.

For YKRFEGLTQR [YKRFEGLTQR, single-amino acid extended precursor of the HLA-B27 ligand KRFEGLTQR], in assay [10], the affinity, expressed as Ki, was 394 ± 133 µM.

Regarding LKRVVINKDT [LKRVVINKDT, single-amino acid extended precursor of the HLA-B27 ligand KRVVINKDT], the inhibition constant Ki in assay [11] was found to be 132 ± 53 µM.
